Source: patent US5157019A, “Serine protease inhibitors” (Monsanto Company, priority 1991, dated 1992)
Ends that are not written are not given here.

How the values were obtained:
Type in all cases: biochemical
[1] = molecular target: T1, HUMAN SPUTUM ELASTASE (Homo sapiens, UniProt P08246); assay: Elastase assay (MeO-Suc-Ala-Pro-Val-pNA); conditions: 200 μM peptide
T1 construct: HUMAN SPUTUM ELASTASE; purchased Elastin Products Company SE563; host or cells: human sputum (from the product name)
T1 sequence (P08246 30-267): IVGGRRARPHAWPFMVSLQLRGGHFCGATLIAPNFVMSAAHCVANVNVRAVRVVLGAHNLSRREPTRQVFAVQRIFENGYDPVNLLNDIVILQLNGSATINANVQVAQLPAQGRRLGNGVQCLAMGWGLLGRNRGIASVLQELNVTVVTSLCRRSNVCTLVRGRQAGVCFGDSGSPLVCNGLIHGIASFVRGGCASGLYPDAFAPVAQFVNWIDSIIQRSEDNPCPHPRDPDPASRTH
Experimental: Enzyme used is "HUMAN SPUTUM ELASTASE®" which is an enzyme which is the target protease for α1 antitrypsin from Elastin Products Company, Catalog No. SE563, lot 85071, 875 units/mg as determined by supplier with N-Suc-Ala-Ala-Ala-pNA; prepared at 0.2 mg/mL in 0.1M Tris·HCl, pH 8.8 at 37 degrees C. An amount of enzyme is used to give approximately 0.1 change in Absorbance/min; which in this assay was 1 μg.
The substrate is MeO-Suc-Ala-Pro-Val-pNA, Sigma Catalog No. M-4765. About 50 mg of the substrate is dissolved in 1 ml of 1-methyl-2-pyrrolidinone and diluted to 33 mls. with 0.1M Tris-HCl, pH 7.5, containing 0.5M NaCl, and 0.01 wt % sodium azide.
Peptide solutions are prepared at 500 μM, using 1.5% of the final volume of DMSO first and diluting with distilled water (DW) or 0.1M Tris.HCl, pH 8.8 at 37 degrees C. [formula]

[2] = molecular target: T2, Cathepsin G (Homo sapiens, UniProt P08311); assay: Cathepsin G assay (Suc-Ala-Ala-Pro-Phe-pNA, 410 nm); conditions: for inhibition at 100 µM / Cathepsin G % inhibition: 100 μM peptide (Tables VI, VIII); for inhibition at 200 µM / Cathepsin G Inhibition: 200 μM peptide (head of Table IX)
T2 construct: purchased Elastin Products Company (EPC) SG-45
T2 sequence (P08311 21-255): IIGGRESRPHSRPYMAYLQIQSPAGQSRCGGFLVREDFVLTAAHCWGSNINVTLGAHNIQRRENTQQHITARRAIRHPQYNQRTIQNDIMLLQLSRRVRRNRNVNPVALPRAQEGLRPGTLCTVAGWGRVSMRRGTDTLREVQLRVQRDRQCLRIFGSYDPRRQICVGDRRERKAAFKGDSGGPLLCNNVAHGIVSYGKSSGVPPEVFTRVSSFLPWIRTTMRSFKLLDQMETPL
Experimental: Reference: Elastin Products Company (EPC) technical data sheet, cathepsin G, No. SG-45.
Method: Spectrophotometric rate determination
A) Buffer; 0.1M Tris, pH 7.5 at 25° C.
B) Substrate; 60 mM Suc-Ala-Ala-Pro-Phe-pNA obtained from Sigma Chemical Company. Solution prepared by dissolving 50 mg substrate in 1.3 ml of 1-methyl-2-pyrrolidinone. Stored at 5° C.
C) Peptide Inhibitors; 200 μM HCl salt. Depending on peptide solubility, dissolved in buffer or DMSO and then buffer added for a final concentration of 10% DMSO.
D) Enzyme; Cathepsin G, EPC SG-45, lot 85117 used for all assays, 0.0077 mg protein per mg solid determined by supplier by Bradford method. Enzyme was dissolved in buffer at a concentration of approx. 5 mg/ml solid. Solution stored on ice, used within 2 hours.
Pipetted the following into semi-micro quartz cuvettes: 0.3 ml buffer, 0.15 ml peptide solution and 0.5 ml of substrate solution. Equilibrate for 5 min. at 25° C., then add 0.05 ml of enzyme solution and monitor the release of pNA spectrophotometrically at 410 nm for at least 3 minutes. The controls contain either 0.45 ml of buffer or 20% DMSO in buffer (for a final concentration of 10% DMSO).
The rate (O.D./min) is obtained as an average over 3 minutes. [formula]

[3] = molecular target: Thrombin (Homo sapiens, UniProt P00734); assay: Coagulation inhibition assay, thrombin (fibrinogen clotting end point); conditions: 40 μM peptide
Experimental: Inhibitory activity of subject peptides toward thrombin and Factor Xa were done in the following manner. Mix 100 μL Thrombin (3.125 units/ml, 1.125 μg/ml) in TAB with […] Peptide in TAB and incubate for 1 minute at 37° C. Add 50 μL Fibrinogen (2 mg/ml)and measure clotting end point (in seconds) in a Fibrometer (BBL) TAB=Thrombin Assay Buffer: 0.15M NaCl, 6.6 gm/L PEG-6000, 0.01M Imidazole, 0.01 CaCl2, pH 7.4

[4] = molecular target: Factor Xa (Homo sapiens, UniProt P00742); assay: Coagulation inhibition assay, Factor Xa (clotting of Factor X deficient plasma); conditions: 40 μM peptide
Chain of Factor Xa (P00742 235-488 limits assumed): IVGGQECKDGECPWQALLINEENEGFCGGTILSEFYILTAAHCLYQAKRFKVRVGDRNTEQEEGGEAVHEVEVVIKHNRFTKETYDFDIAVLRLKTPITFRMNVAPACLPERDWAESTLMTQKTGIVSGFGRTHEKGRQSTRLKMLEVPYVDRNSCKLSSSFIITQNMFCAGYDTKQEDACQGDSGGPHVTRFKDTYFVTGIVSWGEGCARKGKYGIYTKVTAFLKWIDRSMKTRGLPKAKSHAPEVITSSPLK
Chain of Factor Xa (P00742 41-179 partner limits assumed): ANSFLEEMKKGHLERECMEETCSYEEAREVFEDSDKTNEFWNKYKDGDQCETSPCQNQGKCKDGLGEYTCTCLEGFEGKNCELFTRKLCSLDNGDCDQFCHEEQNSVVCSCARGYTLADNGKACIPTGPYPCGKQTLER
Experimental: Inhibitory activity of subject peptides toward thrombin and Factor Xa were done in the following manner.
Mix 50 μL Factor Xa (0.1 μg/ml) in TBSA with 100 μL Peptide in TBSA and 50 μL CaCl2 25 mM and incubate for 1 minute at 37° C. Add 50 μL Factor X deficient plasma/RBC (10/1) and measure clotting end point (in seconds) in a Fibrometer (BBL)
TBSA=Tris-Saline with Bovine Serum Albumin: 0.1M NaCl,0.05 M Tris-HCl, 1 mg/ml BSA, 0.1% NaN3
Factor X deficient plasma: George King Biomedical (GK 1004) RBC=Rabbit Brain Cephalin: Sigma Chemical Co. St. Louis, Mo.

[5] = molecular target: Plasmin (Homo sapiens, UniProt P00747); assay: Plasmin assay (S2251); conditions: 200 μM peptide
Chain of Plasmin (P00747 581-810 limits assumed): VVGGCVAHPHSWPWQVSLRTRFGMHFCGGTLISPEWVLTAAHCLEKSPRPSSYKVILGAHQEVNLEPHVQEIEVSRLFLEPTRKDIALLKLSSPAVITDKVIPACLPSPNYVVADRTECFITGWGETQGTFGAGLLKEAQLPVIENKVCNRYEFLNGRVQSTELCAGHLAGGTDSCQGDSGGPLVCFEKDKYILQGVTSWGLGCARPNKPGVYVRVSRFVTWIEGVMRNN
Chain of Plasmin (P00747 97-580 partner limits assumed): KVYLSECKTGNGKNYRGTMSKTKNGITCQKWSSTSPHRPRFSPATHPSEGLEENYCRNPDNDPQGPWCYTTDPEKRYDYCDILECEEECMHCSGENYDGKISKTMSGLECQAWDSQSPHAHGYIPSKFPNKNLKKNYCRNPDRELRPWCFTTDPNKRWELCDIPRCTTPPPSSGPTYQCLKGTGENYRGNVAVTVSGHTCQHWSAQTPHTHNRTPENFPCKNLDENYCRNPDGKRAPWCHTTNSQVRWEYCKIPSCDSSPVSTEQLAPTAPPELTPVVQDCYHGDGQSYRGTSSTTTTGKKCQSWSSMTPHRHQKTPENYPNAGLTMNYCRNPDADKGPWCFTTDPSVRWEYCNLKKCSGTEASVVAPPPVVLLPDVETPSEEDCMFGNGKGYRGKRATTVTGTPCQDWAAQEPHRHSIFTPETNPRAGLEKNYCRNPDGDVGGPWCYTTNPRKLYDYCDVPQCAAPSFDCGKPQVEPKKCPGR
Experimental: Substrate H-D-Val-Leu-Lys-pNA·HCl (S2251, Kabi), 10 mM in deionized water; may be frozen for future use.
Buffer 50 mM Tris·HCl, pH 7.4 containing 0.01% Tween 80
Inhibitor 400 μM in deionized water
Enzyme Plasmin; 0.5 U/ml in buffer (Cat #P-4895, Sigma Chemical Co., St. Louis, Mo.)
Mix 220 μL buffer, 200 μL deionized water (control) or inhibitor solution and 40 μL substrate. Incubate for 2 min at 37° C. Transfer 230 μL to a microcuvette, add 40 μL of enzyme, mix, and measure rate spectrophotometrically at 405 nm for about 5 min. Inhibition (%) is calculated in the same manner as in previous assays.

Row | Molecule | Elastase Inhibition [1] | inhibition at 200 µM [1] [%] | inhibition at 100 µM [2] [%] | inhibition at 200 µM [2] [%] | inhibition at 40 µM [3] [%] | inhibition at 40 µM [4] [%] | inhibition at 200 µM [5] [%] | Cathepsin G % inhibition [2] [%] | Cathepsin G Inhibition [2] [%] | Thrombin inhibition [3] [%] | Factor Xa % inhibition [4] [%] | Plasmin % inhibition [5] [%]
1 | CC[C@H](C)[C@H](NC(=O)[C@H](CC(C)C)NC(=O)[C@H](Cc1ccccc1)NC(=O)[C@@H](NC(=O)[C@H](Cc1ccccc1)NC(=O)[C@@H]1CCCN1C(=O)[C@H](CCCCN)NC(=O)[C@H](CC(N)=O)NC(=O)[C@H](Cc1ccccc1)NC(=O)[C@H](CCCCN)NC(=O)[C@@H](NC(=O)[C@H](CCC(=O)O)NC(=O)[C@@H]1CCCN1C(=O)[C@@H]1CCCN1)C(C)C)C(C)C)C(=O)O [Peptide 1] | no inhibitory activity | 0 | 0 | 0 | 0 | 31 | 37 | – | – | – | – | –
2 | AGRSLNPNRVTFKANRPFLVFIREVPLNTIIFLGRVANP [Peptide 27] | – | 0 | – | 52 | 97 | – | – | – | – | – | – | –
3 | IVRFNRPFLLIIVPTDTQNIFFLSKVTNPSKPR [Peptide 22] | 0% | – | – | – | – | – | – | 46 | 46 | 90 | 97 | 56
4 | RVTFKANRPFLVFIREVPLNTIIFLGRVANP [Peptide 21] | – | 0 | 38 | 38 | 97 | 99 | 53 | – | – | – | – | –

The remaining lines, values ahead:

Row | Elastase Inhibition [1] | inhibition at 200 µM [1] [%] | inhibition at 100 µM [2] [%] | inhibition at 200 µM [2] [%] | inhibition at 40 µM [3] [%] | inhibition at 40 µM [4] [%] | inhibition at 200 µM [5] [%] | Cathepsin G % inhibition [2] [%] | Cathepsin G Inhibition [2] [%] | Thrombin inhibition [3] [%] | Factor Xa % inhibition [4] [%] | Plasmin % inhibition [5] [%] | Molecule
5 | – | 0 | 32 | 32 | 50 | 73 | 33 | – | – | – | – | – | IVRFNRPFLLII [Peptide 3]
6 | – | 0 | 13 | 13 | – | 51 | 33 | – | – | – | – | – | PNRVTFKANRPFLVFI [Peptide 2]
7 | 0% | – | – | – | – | – | – | 0 | 0 | 71 | 87 | 43 | VKFNKPFVFLLIEQNTKSPLFLGKVVNPTQK [Peptide 20]
